In brackets after ≈: the same amount, converted by molar mass. Several values for one entry are separate records, joined by “and”; a condition that tells them apart may be missing. Equal values may be shown once. Read-outs that look alike come from different tables or passages of the source.
Assays:
Solubility in 5% DMSO = format: physicochemical; conditions: aqueous with cosolvent or surfactant or cyclodextrin, read-out: soluble at up to
PBD domain of human PLK2 = molecular target: T1, PBD domain of human PLK2 (Homo sapiens, UniProt Q9NYY3); assay: Fluorescence polarisation (FP) assay, PLK2 PBD; format: binding
T1 construct: For FP assays using PLK2 PBD (aa356-681), the same procedure was applied; GST (N, cleaved yes); made in house; host or cells: E. coli C41
T1 sequence (Q9NYY3 356-681): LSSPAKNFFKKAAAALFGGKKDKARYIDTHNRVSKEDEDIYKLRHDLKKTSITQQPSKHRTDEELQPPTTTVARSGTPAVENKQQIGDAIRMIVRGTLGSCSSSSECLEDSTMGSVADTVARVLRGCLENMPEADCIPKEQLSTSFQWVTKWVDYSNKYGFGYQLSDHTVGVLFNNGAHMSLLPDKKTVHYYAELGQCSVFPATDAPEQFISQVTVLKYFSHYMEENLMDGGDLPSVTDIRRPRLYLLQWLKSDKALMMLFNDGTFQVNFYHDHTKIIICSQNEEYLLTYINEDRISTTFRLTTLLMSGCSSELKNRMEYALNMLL
Description: Final concentrations of assay components used in binding assays were as follows: TAMRA-labelled consensus PLK1 PBD binding phosphopeptide, 5-TAMRA-MAGPMQS(pThreonine)PLMGAKK-acid 10nM; PLK1 PBD (aa345-603) 84nM (2.5ng/μl). Assays were carried out in PBS (pH 7.4) plus 0.03% tween. DMSO controls were run alongside all experimental compounds and % inhibition normalised to these controls. Compounds were titrated 2 fold from a top concentration of 250μM giving a maximum final concentration of DMSO in the assay of 0.25%; however the assay can tolerate DMSO up to 5%. Compound and PBD protein were incubated together at 22°C for 1 hour prior to addition of the TAMRA labelled binding phosphopeptide. The total assay volume per well was 45μl. All experiments were performed in NBS black 384-well microtiter plates (Corning). Fluorescence Polarisation (FP) was read using a BMG PheraStar plate reader with a 540/590/590nm FP module and unbound 10nm TAMRA-labelled peptide set to a FP value of 35mP.
For FP assays using PLK2 PBD (aa356-681), the same procedure was applied except that TAMRA-MAGPMQTS(pThreonine)PKNGAKK was used as the consensus binding phosphopeptide.

[1] = molecular target: T2, NanoLuc-PLK1 fusion protein (Homo sapiens, UniProt P53350); assay: NanoLuc thermal shift assay; format: cell-based; conditions: compound at 100 μM
T2 construct: NanoLuc fused to the N-termini of full-length human PLK1, PLK2, PLK3, PLK4 or p38α MAPK; expressed in transfected cells; host or cells: HeLa, transient, digitonin-permeabilised
T2 sequence (P53350 whole entry, the tested form may be a part): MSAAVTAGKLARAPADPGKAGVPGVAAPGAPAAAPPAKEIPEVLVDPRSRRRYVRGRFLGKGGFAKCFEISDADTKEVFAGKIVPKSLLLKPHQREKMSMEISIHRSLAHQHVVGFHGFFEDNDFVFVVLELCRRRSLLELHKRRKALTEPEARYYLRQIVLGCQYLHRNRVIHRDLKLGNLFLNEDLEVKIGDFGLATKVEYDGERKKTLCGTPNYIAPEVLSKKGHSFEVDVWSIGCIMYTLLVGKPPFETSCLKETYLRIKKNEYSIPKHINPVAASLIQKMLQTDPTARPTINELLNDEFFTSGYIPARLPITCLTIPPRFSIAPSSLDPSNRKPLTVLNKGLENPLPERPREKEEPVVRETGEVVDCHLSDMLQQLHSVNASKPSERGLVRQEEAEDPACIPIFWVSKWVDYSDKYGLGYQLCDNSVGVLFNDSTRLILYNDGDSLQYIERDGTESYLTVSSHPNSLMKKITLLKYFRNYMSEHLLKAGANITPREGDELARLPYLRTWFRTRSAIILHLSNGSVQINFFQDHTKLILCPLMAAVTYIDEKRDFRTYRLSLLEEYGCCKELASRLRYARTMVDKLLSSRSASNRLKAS
Description: (§1) HeLa cells were transfected with plasmids encoding NanoLuc fused to the N-termini of full-length human PLK1, PLK2, PLK3, PLK4 or p38α MAPK. Twenty-four h after transfection, the thermal stability of the fusion proteins was tested using a modified version of the assay protocol supplied by Promega. Briefly, cells were harvested by tyrpsinisation and centrifugation, counted, and resuspended to 200,000 cells/ml in 3mls of serum-free OptiMEM media. Cells were then permeabilised using with 50ug/ml digitonin in DMSO for 5 min and incubated with test compounds at 100uM, plus protease inhibitor cocktail (Promega G6521), in a final concentration of 5% DMSO for 1 h at 37°C. After incubation, 100 μl/well of cells were aliquoted into a 96-well, thin-walled PCR plate and then heated for 3 minutes using a pre-warmed MJ Tetrad DNA Engine set to run a temperature gradient of 42 to 66°C. The plates were then cooled to room temperature for 10 min, and then 80μl of each sample was transferred to a white-walled 96-well Nunc plate before NanoBRET™ NanoGlo Substrate diluted in Opti-MEM was added. NanoLuc enzyme activity was read out within 10 min using a BMG Clariostar plate reader.
(§2) Nanoluciferase enzyme activity of PLK1- or PLK4-Nanoluc fusion protein was analysed using GraphPad Prism. Data were normalised as follows: (treatment A RLU value at X°C temp/treatment A RLU value at 42°C temp) x 100. Using the Boltzmann sigmoidal equation, a curve was then fitted to the normalised data. From this non-linear fit, a V50 value was generated, which in this context represents the aggregation onset temperature (Tagg), at which 50% of the PLK1- or PLK4-Nanoluc fusion protein has aggregated.

[2] = molecular target: T3, NanoLuc-PLK4 fusion protein (Homo sapiens, UniProt O00444); assay: NanoLuc thermal shift assay; format: cell-based; conditions: compound at 100 μM
T3 construct: NanoLuc fused to the N-termini of full-length human PLK1, PLK2, PLK3, PLK4 or p38α MAPK; expressed in transfected cells; host or cells: HeLa, transient, digitonin-permeabilised
T3 sequence (O00444 1-970): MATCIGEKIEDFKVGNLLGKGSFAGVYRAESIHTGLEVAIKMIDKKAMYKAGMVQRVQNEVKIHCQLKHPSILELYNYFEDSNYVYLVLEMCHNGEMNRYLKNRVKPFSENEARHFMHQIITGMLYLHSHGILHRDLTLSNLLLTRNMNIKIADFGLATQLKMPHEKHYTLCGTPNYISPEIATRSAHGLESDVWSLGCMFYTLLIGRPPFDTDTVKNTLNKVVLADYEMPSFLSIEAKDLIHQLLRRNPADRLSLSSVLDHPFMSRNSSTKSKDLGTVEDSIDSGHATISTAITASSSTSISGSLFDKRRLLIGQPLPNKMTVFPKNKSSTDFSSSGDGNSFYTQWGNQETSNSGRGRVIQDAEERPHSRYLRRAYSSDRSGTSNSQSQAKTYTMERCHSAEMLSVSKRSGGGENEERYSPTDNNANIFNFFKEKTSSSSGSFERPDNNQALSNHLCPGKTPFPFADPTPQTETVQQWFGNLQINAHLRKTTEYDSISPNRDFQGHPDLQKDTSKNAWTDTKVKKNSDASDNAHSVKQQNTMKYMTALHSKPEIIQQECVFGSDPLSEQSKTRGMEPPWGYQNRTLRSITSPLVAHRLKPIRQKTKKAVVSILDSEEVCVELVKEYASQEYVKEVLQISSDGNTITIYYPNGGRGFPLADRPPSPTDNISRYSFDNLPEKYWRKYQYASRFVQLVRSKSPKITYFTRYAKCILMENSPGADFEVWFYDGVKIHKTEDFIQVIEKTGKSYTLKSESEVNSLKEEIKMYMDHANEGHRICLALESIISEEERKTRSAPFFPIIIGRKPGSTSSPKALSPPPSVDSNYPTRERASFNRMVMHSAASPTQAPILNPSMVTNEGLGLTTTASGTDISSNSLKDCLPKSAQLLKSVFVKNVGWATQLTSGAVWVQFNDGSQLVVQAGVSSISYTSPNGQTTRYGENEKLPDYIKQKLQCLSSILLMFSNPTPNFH
Description: as §1, §2

O=C(O)CCc1ccc(-c2ccc(Br)cc2)n1-c1ccccc1C(F)(F)F [Poloppin]
solubility (Solubility in 5% DMSO): ≤ 1000 µM | selectivity for PLK1-PBD over PLK2-PBD (PBD domain of human PLK2): ~3 fold | IC50 (PBD domain of human PLK2; IC50, binding of TAMRA-labelled phosphopeptide to PLK2 PBD): 88.3 µM and 88 µM | thermal stability of NanoLuc-PLK1 [1]: increases the thermal stability | thermal stability of NanoLuc-PLK4 [2]: increases the thermal stability

CN(C)CCNC(=O)c1ccc(-c2ccc(-c3ccc(Cl)cc3)n2-c2ccccc2C(F)(F)F)cc1 [Poloppin-II]
solubility (Solubility in 5% DMSO): ~100 µM (≈ 51.2 µg/mL) | IC50 (PBD domain of human PLK2; read-out: IC50, binding of TAMRA-labelled phosphopeptide to PLK2 PBD): 105 µM | thermal stability of NanoLuc-PLK1 [1]: engages | thermal stability of NanoLuc-PLK4 [2]: engages

— paper PMC5563081, “Modulating Protein-Protein Interactions of the Mitotic Polo-like Kinases to Target Mutant KRAS” (Cell Chemical Biology, 2017)
